In patent US5721246A, “Heterobicyclic sulfonamide and sulfonic ester derivatives” (Eisai Co., Ltd., priority 1993, dated 1998):
In brackets after ≈: the same amount, converted by molar mass. Read-outs that look alike come from different tables or passages of the source.

Legend:
[1] = test system: colon 38; type: in vivo, mouse; settings: once a day for 8 days, BDF1 mice, tumor weight on 21st day
Method: In vivo Antitumor Test Against Colon 38 (Mouse Colon Cancer)
About 75 mg of colon 38 was subcutaneously transplanted to the flank of each BDF1 mouse (aged 7 weeks, female). A test compound according to the present invention was suspended in a physiological saline containing 3.5% of dimethyl sulfoxide and 6.5% of Tween 80 and the obtained suspension was intraperitoneally administered to the mice in a predetermined dose once a day for 8 days from the next day of transplantation. On the other hand, only a physiological saline containing 3.5% of dimethyl sulfoxide and 6.5% of Tween 80 was intraperitoneally administered to the mice of the control group. The control group was composed of ten mice, while each treated group was composed of six mice.
On the 21st day after the transplantation, the tumor was extirpated from each mouse to determine its weight. The tumor growth inhibition ratio was determined by the following formula: [formula] T: average weight of tumor of the treated group C: average weight of tumor of the control group

[2] = test system: HCT116; assay: animal or person; settings: Mus musculus, HCT-116, ip, 504 h, once a day for 4 days, nude mice, tumor weight on 21st day, read-out: Growth inhibition ratio; for inhibition in vivo at 100 mg/kg: 100 mg/kg/day i.p.
Source text: In vivo Antitumor Test Against HCT116 (Human Colon Cancer)
HCT116 (5 to 8×10^6) was subcutaneously transplanted to the flank of each nude mouse (BALB/c·nu/nu, aged 7 to 8 weeks, female). A test compound according to the present invention was suspended in a physiological saline containing 3.5% of dimethyl sulfoxide and 6.5% of Tween 80 and the obtained suspension was intraperitoneally administered to the mice treated above once a day in a predetermined dose for 4 days after the time at which the tumor volume had increased to about 100 mm^3, which was about 7 days after the transplantation. On the other hand, only a physiological saline containing 3.5% of dimethyl sulfoxide and 6.5% of Tween 80 was intraperitoneally administered to the mice of the control group. The control group was composed of ten mice, while each treated group was composed of five mice. On the 21st day after the initiation of administration, the tumor was extirpated from each mouse to determine its weight. The tumor growth inhibition ratio was determined by the following formula: [formula] T: average weight of tumor of the treated group C: average weight of tumor of the control group

[3] = test system: colon 38 cells; assay: In vitro antitumor test against colon 38 cells (MTT); type: cell-based; settings: 72 h, concentration at which 50% of mouse colon 38 cells are inhibited, 3 days
Method: In vitro Antitumor Test Against Colon 38 Cells (Mouse Colon Cancer Cells)
2.5×10^3 (0.1 ml) of colon 38 cells suspended in RPMI1640 medium (a product of Sanko Junyaku) containing 10% of fetal bovine serum, penicillin (100 units/ml), streptomycin (100 μg/ml), mercaptoethanol (5×10^-5 M) and sodium pyruvate (1 mM) were inoculated in each well of a 96-well flat-bottomed microplate, and cultured in an incubator containing 5% of carbon dioxide at 37° C. for one day.
A test compound according to the present invention was dissolved in dimethyl sulfoxide in a concentration of 20 mg/ml and the resulting solution was diluted with 10% fetal bovine serum/RPMI1640 medium to a concentration of 200 μg/ml. The resulting solution was diluted with 10% fetal bovine serum/RPMI1640 medium to prepare 3-fold serial dilutions with the maximum concentration being 200 μg/ml. The obtained dilutions were each poured into the well of the above-described culture plate in an amount of 0.1 ml. The resulting plate was cultured at 37° C. in an incubator containing 5% of carbon dioxide for 3 days.
Thereafter, a solution of MTT[3-(4,5-dimethylthiazol-2-yl)-2,5-diphenyltetrazolium bromide] (having a concentration of 3.3 mg/ml) was added to each well in an amount of 0.05 ml. The resulting mixtures were further incubated for 2 hours. The supernatant was removed from each well by suction. Formed formazan was dissolved in 0.1 ml of dimethyl sulfoxide. The absorbance at 540 nm was determined with a microplate reader and the absorbance was taken as an index of the number of viable cells. The inhibitory ratio of the test compound was calculated according to the following formula to determine the IC50 of the test compound, with the IC50 referring to the concentration at which 50% of mouse colon 38 cells are inhibited: [formula] T: absorbance of well containing a test compound C: absorbance of well containing no test compound

| SMILES | IC50 [3] [mg/L] | Growth inhibition ratio ([1]; 200 mg/kg/day i.p.) [%] | inhibition in vivo at 200 mg/kg ([2]; 200 mg/kg/day i.p.) [%] | Growth inhibition ratio ([1]; 50 mg/kg/day i.p.) [%] | inhibition in vivo at 100 mg/kg [2] [%] |
| --- | --- | --- | --- | --- | --- |
| Nc1ccc(S(=O)(=O)Nc2cnc3c(Cl)cccc3n2)cc1 [CQS, 2-sulfanylamido-5-chloroquinoxaline, reference compound] | 2 (≈ 5.97 µM) | 53 | 33 |  |  |
| N#Cc1c[nH]c2c(NS(=O)(=O)c3cccc(Cl)c3)cccc12 [Example 17] | 0.13 (≈ 0.392 µM) |  |  | 94 |  |
| CC(=O)c1ccc(S(=O)(=O)Nc2cccc3c(C#N)c[nH]c23)cc1 [Example 42] | 0.25 (≈ 0.737 µM) |  |  | 98 |  |

More lines, main results first:

| IC50 [3] [mg/L] | SMILES | Growth inhibition ratio ([1]; 200 mg/kg/day i.p.) [%] | inhibition in vivo at 200 mg/kg ([2]; 200 mg/kg/day i.p.) [%] | Growth inhibition ratio ([1]; 50 mg/kg/day i.p.) [%] | inhibition in vivo at 100 mg/kg [2] [%] |
| --- | --- | --- | --- | --- | --- |
| 0.23 (≈ 0.715 µM) | Nc1ccc(S(=O)(=O)Nc2cccc3c(Cl)c[nH]c23)cc1 [Example 3] |  |  | 94 |  |
| 0.13 (≈ 0.392 µM) | N#Cc1ccc(S(=O)(=O)Nc2cccc3c(Cl)c[nH]c23)cc1 [Example 10] |  |  | 94 |  |
| 0.19 (≈ 0.543 µM) | NC(=O)c1ccc(S(=O)(=O)Nc2cccc3c(Cl)c[nH]c23)cc1 [Example 29] |  |  | 97 | 80 |
| 0.15 (≈ 0.412 µM) | CNC(=O)c1ccc(S(=O)(=O)Nc2cccc3c(Cl)c[nH]c23)cc1 [Example 72] |  |  |  | 87 |
